Assay results from PubChem BioAssay (NCI).
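Cells were grown in 96-well plates and exposed to each compound for 48 hours at five concentrations; endpoints were interpolated linearly between bracketing concentrations, or set to the highest concentration if not reached. GI50 = concentration required for 50% inhibition of growth. TGI denotes the concentration required for complete inhibition of growth.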

Assays:
Experiment in all cases: NCI tumour cell line growth inhibition, 48 h
[1] = tested on: MDA-N
[2] = tested on: NCI-H23 lung
[3] = tested on: CCRF-CEM leukemia
[4] = tested on: MALME-3M melanoma
[5] = tested on: NCI-H460 lung
[6] = tested on: SF-539 CNS
[7] = tested on: HCC-2998 colon
[8] = tested on: MDA-MB-435
[9] = tested on: HCT-116 colon
[10] = tested on: UACC-257 melanoma
[11] = tested on: A549 NSCLC
[12] = tested on: K-562 leukemia
[13] = tested on: SK-OV-3 ovarian
[14] = tested on: RPMI-8226 leukemia
[15] = tested on: HOP-92 NSCLC
[16] = tested on: T-47D breast
[17] = tested on: NCI-H226 lung
[18] = tested on: SNB-75 CNS
[19] = tested on: ACHN renal
[20] = tested on: PC-3 prostate
[21] = tested on: NCI-H522 lung
[22] = tested on: KM12 colon
[23] = tested on: SN12C renal
[24] = tested on: LOX IMVI melanoma
[25] = tested on: COLO 205 colon
[26] = tested on: SF-268 CNS
[27] = tested on: OVCAR-3 ovarian
[28] = tested on: MCF7 breast
[29] = tested on: SF-295 CNS
[30] = tested on: MOLT-4 leukemia
[31] = tested on: OVCAR-4 ovarian
[32] = tested on: HCT-15 colon
[33] = tested on: TK-10 renal
[34] = tested on: CAKI-1 renal
[35] = tested on: SK-MEL-28 melanoma
[36] = tested on: HS 578T breast
[37] = tested on: HOP-62 NSCLC
[38] = tested on: OVCAR-8 ovarian
[39] = tested on: EKVX NSCLC
[40] = tested on: A498 renal
[41] = tested on: 786-0 renal
[42] = tested on: SW-620 colon
[43] = tested on: M14 melanoma
[44] = tested on: UACC-62 melanoma
[45] = tested on: SNB-19 CNS
[46] = tested on: HL-60(TB) leukemia
[47] = tested on: DU-145 prostate
[48] = tested on: NCI/ADR-RES ovarian
[49] = tested on: HT29 colon
[50] = tested on: MDA-MB-231 breast
[51] = tested on: RXF 393 renal
[52] = tested on: U251 CNS
[53] = tested on: OVCAR-5 ovarian
[54] = tested on: SK-MEL-5 melanoma
[55] = tested on: IGROV1 ovarian
[56] = tested on: UO-31 renal
[57] = tested on: SK-MEL-2 melanoma
[58] = tested on: SR leukemia
[59] = tested on: BT-549 breast

CC(=O)c1sc2c(c1OC(=O)c1cccs1)c(=O)n(-c1ccccc1)c(=S)n2-c1ccccc1
TGI [1]: 19.2 µM | TGI [2]: 40.9 µM | TGI [3]: 22.6 µM | TGI [4]: 6.7 µM | TGI [5]: 25.3 µM | TGI [6]: 6.26 µM | TGI [7]: > 100 µM | TGI [8]: 20.8 µM | TGI [9]: 36.6 µM | TGI [10]: 43.9 µM | TGI [11]: > 100 µM | TGI [12]: 95.4 µM | TGI [13]: 52 µM | TGI [14]: 20.3 µM | TGI [15]: 22.1 µM | TGI [16]: > 100 µM | TGI [17]: 9.84 µM | TGI [18]: 68.8 µM | TGI [19]: 11.1 µM | TGI [20]: 15.2 µM | TGI [21]: 6.07 µM | TGI [22]: 59 µM | TGI [23]: 15.1 µM | TGI [24]: 17.2 µM | TGI [25]: 32.5 µM | TGI [26]: 51.5 µM | TGI [27]: 50.4 µM | TGI [28]: 56.4 µM | TGI [29]: 7.13 µM | TGI [30]: 60.8 µM | TGI [31]: 38.8 µM | TGI [32]: 36.5 µM | TGI [33]: 55.4 µM | TGI [34]: 61.1 µM | TGI [35]: 15.6 µM | TGI [36]: 22.3 µM | TGI [37]: 33.9 µM | TGI [38]: 21.1 µM | TGI [39]: 51.1 µM | TGI [40]: 15.9 µM | TGI [41]: 15.5 µM | TGI [42]: 45.9 µM | TGI [43]: 10.6 µM | TGI [44]: 37.9 µM | TGI [45]: 44.8 µM | TGI [46]: 52.2 µM | TGI [47]: 57.8 µM | TGI [48]: 43.3 µM | TGI [49]: 11.6 µM | TGI [50]: 32.2 µM | TGI [51]: 18.6 µM | TGI [52]: 26.7 µM | TGI [53]: 13.2 µM | TGI [54]: 25.8 µM | TGI [55]: 35.4 µM

NC(N)=N/N=C/c1cc(Cl)cc(Cl)c1O
TGI [1]: > 100 µM | TGI [2]: > 100 µM | TGI [3]: > 100 µM | TGI [4]: > 100 µM | TGI [5]: > 100 µM | TGI [6]: > 100 µM | TGI [7]: 32 µM | TGI [8]: > 100 µM | TGI [9]: > 100 µM | TGI [10]: > 100 µM | TGI [11]: > 100 µM | TGI [12]: > 100 µM | TGI [13]: > 100 µM | TGI [14]: > 100 µM | TGI [15]: > 100 µM | TGI [16]: > 100 µM | TGI [17]: > 100 µM | TGI [18]: 89.1 µM | TGI [19]: > 100 µM | TGI [20]: > 100 µM | TGI [21]: > 100 µM | TGI [22]: > 100 µM | TGI [23]: > 100 µM | TGI [24]: > 100 µM | TGI [25]: > 100 µM | TGI [26]: > 100 µM | TGI [56]: > 100 µM | TGI [27]: > 100 µM | TGI [28]: > 100 µM | TGI [29]: > 100 µM | TGI [30]: > 100 µM | TGI [31]: > 100 µM | TGI [32]: 58.9 µM | TGI [33]: > 100 µM | TGI [34]: > 100 µM | TGI [35]: > 100 µM | TGI [36]: > 100 µM | TGI [37]: > 100 µM | TGI [38]: > 100 µM | TGI [39]: > 100 µM | TGI [40]: > 100 µM | TGI [41]: > 100 µM | TGI [57]: > 100 µM | TGI [42]: > 100 µM | TGI [43]: > 100 µM | TGI [44]: > 100 µM | TGI [45]: > 100 µM | TGI [46]: > 100 µM | TGI [47]: > 100 µM | TGI [48]: > 100 µM | TGI [49]: > 100 µM | TGI [50]: > 100 µM | TGI [51]: > 100 µM | TGI [52]: > 100 µM | TGI [53]: > 100 µM | TGI [54]: > 100 µM | TGI [55]: > 100 µM

NC(=O)C(=CNc1nc(-c2ccc(Cl)c(Cl)c2)cs1)C(N)=O
GI50 [2]: > 100 µM | TGI [2]: > 100 µM | GI50 [58]: 38.7 µM | TGI [58]: > 100 µM | GI50 [3]: 20.4 µM | TGI [3]: > 100 µM | GI50 [4]: > 100 µM | TGI [4]: > 100 µM | GI50 [5]: 69.7 µM | TGI [5]: > 100 µM | GI50 [6]: 46.4 µM | TGI [6]: > 100 µM | GI50 [7]: > 100 µM | TGI [7]: > 100 µM | GI50 [8]: 48.2 µM | TGI [8]: > 100 µM | GI50 [9]: > 100 µM | TGI [9]: > 100 µM | GI50 [10]: > 100 µM | TGI [10]: > 100 µM | GI50 [11]: 85.7 µM | TGI [11]: > 100 µM | GI50 [12]: 75.8 µM | TGI [12]: > 100 µM | GI50 [13]: > 100 µM | TGI [13]: > 100 µM | GI50 [14]: 40.4 µM | TGI [14]: > 100 µM | GI50 [15]: > 100 µM | TGI [15]: > 100 µM | GI50 [16]: > 100 µM | TGI [16]: > 100 µM | GI50 [17]: > 100 µM | TGI [17]: > 100 µM | GI50 [18]: > 100 µM | TGI [18]: > 100 µM | GI50 [19]: > 100 µM | TGI [19]: > 100 µM | GI50 [20]: > 100 µM | TGI [20]: > 100 µM | GI50 [21]: 11.8 µM | TGI [21]: > 100 µM | GI50 [22]: > 100 µM | TGI [22]: > 100 µM | GI50 [23]: > 100 µM | TGI [23]: > 100 µM | GI50 [59]: > 100 µM | TGI [59]: > 100 µM | GI50 [24]: > 100 µM | TGI [24]: > 100 µM | GI50 [25]: > 100 µM | TGI [25]: > 100 µM | GI50 [26]: 71.7 µM | TGI [26]: > 100 µM | GI50 [56]: 12.1 µM | TGI [56]: > 100 µM | GI50 [27]: 41.6 µM | TGI [27]: > 100 µM | GI50 [28]: 80 µM | TGI [28]: > 100 µM | GI50 [29]: 37.1 µM | TGI [29]: > 100 µM | GI50 [30]: 48.7 µM | TGI [30]: > 100 µM | GI50 [31]: 62.4 µM | TGI [31]: > 100 µM | GI50 [32]: 84.7 µM | TGI [32]: > 100 µM | GI50 [33]: > 100 µM | TGI [33]: > 100 µM | GI50 [34]: 25.3 µM | TGI [34]: > 100 µM | GI50 [35]: > 100 µM | TGI [35]: > 100 µM | GI50 [36]: 26.9 µM | TGI [36]: > 100 µM | GI50 [37]: > 100 µM | TGI [37]: > 100 µM | GI50 [38]: 80.7 µM | TGI [38]: > 100 µM | GI50 [39]: 43.8 µM | TGI [39]: > 100 µM | GI50 [40]: > 100 µM | TGI [40]: > 100 µM | GI50 [41]: > 100 µM | TGI [41]: > 100 µM | GI50 [57]: 75.6 µM | TGI [57]: > 100 µM | GI50 [42]: > 100 µM | TGI [42]: > 100 µM | GI50 [43]: > 100 µM | TGI [43]: > 100 µM | GI50 [44]: > 100 µM | TGI [44]: > 100 µM | GI50 [45]: > 100 µM | TGI [45]: > 100 µM | GI50 [46]: 42.8 µM | TGI [46]: > 100 µM | GI50 [47]: > 100 µM | TGI [47]: > 100 µM | GI50 [48]: > 100 µM | TGI [48]: > 100 µM | GI50 [49]: > 100 µM | TGI [49]: > 100 µM | GI50 [50]: 60.8 µM | TGI [50]: > 100 µM | GI50 [51]: > 100 µM | TGI [51]: > 100 µM | GI50 [52]: 65 µM | TGI [52]: > 100 µM | GI50 [53]: > 100 µM | TGI [53]: > 100 µM | GI50 [54]: 71.6 µM | TGI [54]: > 100 µM | GI50 [55]: 32.6 µM | TGI [55]: > 100 µM
